Measurements as given in paper PMC4566129, “Factors Governing P-Glycoprotein-Mediated Drug–Drug Interactions at the Blood–Brain Barrier Measured with Positron Emission Tomography” (Molecular Pharmaceutics, 2015).
pIC50: −log10 of the molar value. Like-named read-outs stand apart in the source and are kept apart here. Marks after values point to notes of the source that are not given here.

How the values were obtained:
ABCB1 [1] = biological target: T1, ABCB1 (Homo sapiens, UniProt P08183)
LLC wild-type cells = LLC wild-type cells (data not shown)
Protocol: (§1) Tariquidar or solvent was added to both compartments. […] To determine membrane integrity, transepithelial electrical resistance (TEER) and, in representative wells, [^14C]mannitol diffusion were measured with criteria for exclusion described earlier.[27]
(§2) Apparent substrate permeability (Papp) from the basolateral to the apical compartment (b–A) and vice versa (a–B) was calculated using the following equation: [drawing 1] where dQ/dt (disintegration/min) is the permeability rate of the substrate into the sample compartment, A the growth area of the monolayer, and C0 the initial substrate concentration in the donor compartment. The transport ratio (TR) was calculated by dividing Papp(b–A) by Papp(a–B). […] With Prism6 software (GraphPad Software, La Jolla, CA, USA) a sigmoidal model with variable slope was used to analyze concentration–response relationships by nonlinear regression.

Abcb1a [2] = biological target: T2, Abcb1a (Mus musculus, UniProt P21447); assay: Bidirectional transport assay in Abcb1a-transfected LLC cells (LLC-Abcb1a) without/with tariquidar; details: for pIC50: normalized TR over 6 h, estimated by sigmoidal fit
T2 sequence (P21447 whole entry): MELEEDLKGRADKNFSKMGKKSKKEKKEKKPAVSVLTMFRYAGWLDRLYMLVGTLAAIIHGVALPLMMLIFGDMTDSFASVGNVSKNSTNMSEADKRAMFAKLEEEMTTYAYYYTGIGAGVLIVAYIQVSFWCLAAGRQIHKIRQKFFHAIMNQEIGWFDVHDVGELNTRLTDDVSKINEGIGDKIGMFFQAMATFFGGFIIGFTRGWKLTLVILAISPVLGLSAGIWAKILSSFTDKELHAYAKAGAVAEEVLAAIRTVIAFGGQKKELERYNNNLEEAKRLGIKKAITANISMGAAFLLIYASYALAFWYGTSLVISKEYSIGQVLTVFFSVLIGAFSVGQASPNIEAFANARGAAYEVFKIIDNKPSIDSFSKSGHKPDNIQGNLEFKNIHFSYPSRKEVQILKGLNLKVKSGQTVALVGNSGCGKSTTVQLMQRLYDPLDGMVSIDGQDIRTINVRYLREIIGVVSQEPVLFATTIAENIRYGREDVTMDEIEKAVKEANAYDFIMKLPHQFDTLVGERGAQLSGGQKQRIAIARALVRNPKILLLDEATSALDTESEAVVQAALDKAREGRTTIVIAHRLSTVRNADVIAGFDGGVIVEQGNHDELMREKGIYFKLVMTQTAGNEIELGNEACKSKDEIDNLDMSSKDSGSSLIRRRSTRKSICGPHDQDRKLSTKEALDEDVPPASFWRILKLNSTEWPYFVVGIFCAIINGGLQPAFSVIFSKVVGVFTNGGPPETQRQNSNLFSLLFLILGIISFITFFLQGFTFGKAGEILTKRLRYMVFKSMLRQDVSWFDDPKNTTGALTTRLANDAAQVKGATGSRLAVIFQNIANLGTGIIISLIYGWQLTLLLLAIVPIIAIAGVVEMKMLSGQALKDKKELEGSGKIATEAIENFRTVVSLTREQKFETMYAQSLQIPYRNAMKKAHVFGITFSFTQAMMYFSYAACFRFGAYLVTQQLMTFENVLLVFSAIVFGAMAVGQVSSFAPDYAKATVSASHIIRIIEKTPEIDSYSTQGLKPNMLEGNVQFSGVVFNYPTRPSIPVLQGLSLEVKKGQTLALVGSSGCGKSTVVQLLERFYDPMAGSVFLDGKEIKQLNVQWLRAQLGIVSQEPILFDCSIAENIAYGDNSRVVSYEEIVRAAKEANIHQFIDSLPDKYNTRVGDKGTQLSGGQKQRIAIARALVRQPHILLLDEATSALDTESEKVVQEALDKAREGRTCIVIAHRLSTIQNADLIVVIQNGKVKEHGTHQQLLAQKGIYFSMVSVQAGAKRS
Protocol: LLC-PK1 cells transduced with human MDR1 (LLC-ABCB1) or murine Mdr1a (LLC-Abcb1a) were kindly provided by Prof. P. Borst and Dr. A. Schinkel (The Netherlands Cancer Institute, Amsterdam, The Netherlands).
as §1, §2

Abcb1a [3] = biological target: T2, Abcb1a; details: for Kp,brain,VPM or Kp,brain,dLOP fold increase, tariquidar vs vehicle: metabolite corrected; for Kp,brain for unchanged parent tracer (Kp,brain,VPM or Kp,brain,dLOP): 25 min, corrected for radiolabeled metabolites
Protocol: (§8) In one cohort, all procedures were performed in isoflurane anesthetized (1.5–2% in oxygen) animals resulting in a total anesthesia length of 160 min (= long anesthesia). In the second cohort, pretreatment and radiotracer injection were performed in awake animals which were only shortly anesthetized prior to retro-orbital blood sampling, resulting in a total anesthesia length of 5 min (= short anesthesia). […] Blood was centrifuged to obtain plasma, and whole brains were removed. To plasma and homogenized brain tissue were added unlabeled verapamil (10 mg/mL in water, 100 μL) or N-desmethyl-loperamide (10 mg/mL in water/acetonitrile; 1/1, v/v, 100 μL), and proteins were precipitated by the addition of acetonitrile (1 μL per μL of plasma and 0.5 mL per brain). The homogenates were vortexed and then centrifuged (12000g, 5 min, 21 °C). Each supernatant (plasma, brain, 3 μL each) and diluted radiotracer solution as reference were spotted on thin-layer chromatography (TLC) plates (silica gel 60F 254 nm, 20 × 20 cm; Merck, Darmstadt, Germany), and plates were developed in ethyl acetate/triethylamine (9/1, v/v). Detection was performed by placing the TLC plates on multisensitive phosphor screens (PerkinElmer Life Sciences, Waltham, MA). The screens were scanned at 300 dpi resolution using a PerkinElmer Cyclone Plus Phosphor Imager (PerkinElmer Life Sciences).

Abcb1a/1b = Abcb1a/1b (Mus musculus, UniProt P21447); details: for Kp,brain: wild-type FVB/N mice, 25 min after injection
Sequence of Abcb1a/1b (P21447 whole entry): as above
Protocol: Blood and brain were transferred to preweighed tubes and measured for radioactivity in a gamma counter. The measured radioactivity data were corrected for radioactive decay, and Kb,brain values were calculated.

C57BL/6N mouse plasma = assay: Plasma protein binding (ultrafiltration) in mouse plasma; type: in vitro ADME
Protocol: (§3) After incubation, plasma aliquots (200 μL) were transferred to the preconditioned Amicon filters, which were centrifuged (12000g, 30 min, 25 °C). Filters and tubes were separately measured in a gamma counter, and the obtained data were decay corrected. Percent plasma protein binding was calculated as percent radioactivity in the filter relative to total radioactivity (filter and tube).

[4] = short anesthesia (5 min), tariquidar 15 mg/kg, 25 min after injection
Protocol: as §8

Abcb1a [5] = biological target: T2, Abcb1a; assay: PET imaging of radiotracer brain distribution (Kb,brain) in C57BL/6N wild-type, Abcb1a/1b(−/−) and Abcb1a/1b(+/−) mice and tariquidar concentration–response
Protocol: (§4) Animal respiratory rate and body temperature were constantly monitored (SA Instruments Inc., Stony Brook, NY, USA), and the isoflurane level was adjusted (1.5–2% in oxygen) to achieve a constant and sufficient depth of anesthesia. Anesthesia was maintained for the whole pretreatment and imaging period. Following administration, anatomical magnetic resonance imaging (MRI) was performed on a 1 T benchtop MRI (ICON, Bruker BioSpin GmbH, Ettlingen, Germany) using a modified 3D T1-weighted gradient echo sequence (T1-FLASH) and the following imaging parameters: echo time (TE) = 4.7 ms; repetition time (TR) = 27 ms; flip angle (FA) = 25°; field of view (FOV) = 7.6 × 2.6 × 2.4 cm; matrix = 380 × 130; 32 slices; slice thickness = 750 μm; total imaging time = 22 min. Following MRI, the animal bed was transferred into the gantry of a microPET scanner (Focus 220, Siemens Medical Solutions, Knoxville, TN, USA), and a 10 min transmission scan using a ^57Co point source was recorded.
(§5) After completion of the imaging procedure, a terminal blood sample was withdrawn under isoflurane anesthesia from the retro-orbital sinus vein, and the animals were sacrificed by cervical dislocation. Blood was centrifuged (17000g, 4 °C, 4 min) to obtain plasma, and whole brains were removed. […] The measured radioactivity data were corrected for radioactive decay and expressed as standardized uptake value ((radioactivity per g/injected radioactivity) × body weight). The remainder of the plasma samples was stored at −80 °C until measurement of tariquidar plasma concentrations using a previously described combined liquid chromatography tandem mass spectrometry (LC/MS) assay.[17]
(§6) Images were reconstructed using Fourier rebinning of the 3D sonograms followed by two-dimensional filtered back projection with a ramp filter, resulting in an image voxel size of 0.4 × 0.4 × 0.796 mm^3. A standard data correction protocol (normalization, attenuation, and decay correction) was applied to the PET data. The PET units were converted into units of radioactivity concentration by applying a calibration factor derived from imaging of a cylindrical phantom with a known ^11C-radioactivity concentration. Using the image analysis software Amide,[31] whole brain was manually outlined on the PET images, and time–activity curves, expressed in standardized uptake value, were derived.
(§7) Concentration–response relationships were analyzed by nonlinear regression analysis based on a sigmoidal model with variable slope using Prism 6 software.

Abcb1a [6] = assay: as above
Protocol: as §4, §5, §6, §7

ABCB1 [7] = biological target: T1, ABCB1; details: cited from earlier work
human plasma [8] = assay: Plasma protein binding (ultrafiltration) in human plasma; type: in vitro ADME; details: without tariquidar
Protocol: as §3

ABCB1 [9] = biological target: T1, ABCB1; assay: cell-based; details: ABCB1-transfected LLC cells, normalized TR over 6 h, estimated by sigmoidal fit
human plasma [10] = system: human plasma; design: method as in PMID 23340958; details: human plasma ref 38; cited from earlier work
ABCB1 [11] = system: ABCB1; design: method as in PMID 20016890; details: rats ref 35; read-out: in vivo IC50 of tariquidar for enhancement of brain distribution of (R)-[11C]verapamil; cited from earlier work
[12] = Tariquidar plasma concentration at the end of the PET scan (LC/MS); type: in vivo, mouse; details: 30 mg/kg iv

T1 sequence (P08183 whole entry): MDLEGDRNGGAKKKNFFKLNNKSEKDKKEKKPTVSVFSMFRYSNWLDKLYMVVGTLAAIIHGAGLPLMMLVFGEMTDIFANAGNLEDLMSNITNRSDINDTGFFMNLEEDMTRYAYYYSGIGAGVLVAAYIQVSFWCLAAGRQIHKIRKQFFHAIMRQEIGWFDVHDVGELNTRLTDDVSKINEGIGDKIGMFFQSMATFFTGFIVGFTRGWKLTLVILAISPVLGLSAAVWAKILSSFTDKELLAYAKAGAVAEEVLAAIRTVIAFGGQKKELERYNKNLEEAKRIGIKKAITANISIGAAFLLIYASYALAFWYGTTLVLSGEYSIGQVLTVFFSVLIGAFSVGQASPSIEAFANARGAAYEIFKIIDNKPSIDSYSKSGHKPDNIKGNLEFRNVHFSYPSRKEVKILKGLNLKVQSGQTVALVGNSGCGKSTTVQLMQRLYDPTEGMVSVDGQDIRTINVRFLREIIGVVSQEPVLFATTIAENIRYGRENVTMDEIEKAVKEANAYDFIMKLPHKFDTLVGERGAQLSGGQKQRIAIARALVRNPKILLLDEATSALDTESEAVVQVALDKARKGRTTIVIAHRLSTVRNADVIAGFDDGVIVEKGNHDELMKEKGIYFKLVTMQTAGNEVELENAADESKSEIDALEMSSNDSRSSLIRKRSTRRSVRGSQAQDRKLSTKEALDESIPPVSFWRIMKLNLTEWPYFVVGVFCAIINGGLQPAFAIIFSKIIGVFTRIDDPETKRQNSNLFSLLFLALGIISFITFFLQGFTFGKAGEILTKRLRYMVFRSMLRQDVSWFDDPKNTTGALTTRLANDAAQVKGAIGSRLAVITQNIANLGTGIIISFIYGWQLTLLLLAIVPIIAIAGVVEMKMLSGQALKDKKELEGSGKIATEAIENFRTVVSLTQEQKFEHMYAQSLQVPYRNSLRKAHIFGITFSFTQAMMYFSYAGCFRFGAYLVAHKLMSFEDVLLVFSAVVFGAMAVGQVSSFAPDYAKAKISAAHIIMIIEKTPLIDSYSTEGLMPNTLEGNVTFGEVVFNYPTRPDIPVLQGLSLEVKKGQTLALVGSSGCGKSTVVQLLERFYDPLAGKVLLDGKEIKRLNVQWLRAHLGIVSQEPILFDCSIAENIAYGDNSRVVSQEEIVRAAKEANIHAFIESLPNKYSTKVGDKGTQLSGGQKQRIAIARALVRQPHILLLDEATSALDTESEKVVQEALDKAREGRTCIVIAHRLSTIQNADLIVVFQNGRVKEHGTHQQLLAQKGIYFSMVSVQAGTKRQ

[3H]C([3H])([3H])NC(=O)C(CCN1CCC(O)(c2ccc(Cl)cc2)CC1)(c1ccccc1)c1ccccc1 [[^3H]-N-desmethyl-loperamide]
transport ratio (TR), Papp(b–A)/Papp(a–B) (ABCB1 [1]; ABCB1-transfected LLC cells, 5 nM substrate, without tariquidar): 18.5 ± 1.7
TR relative to TR of [3H]verapamil (ABCB1 [1]; ABCB1-transfected cells): 5 times
transport ratio relative to [3H]verapamil (ABCB1 [1]; in ABCB1- and Abcb1a-transfected cells (both cell types)): 5 to 9 times
transport ratio (TR) (LLC wild-type cells): 1.6 ± 0.03
transport ratio (TR), Papp(b–A)/Papp(a–B) (Abcb1a [2]; Abcb1a-transfected LLC cells, 5 nM substrate, without tariquidar): 27.6 ± 6.5
TR relative to TR of [3H]verapamil (Abcb1a [2]; Abcb1a-transfected cells): 8.6 times

CNC(=O)C(CCN1CCC(O)(c2ccc(Cl)cc2)CC1)(c1ccccc1)c1ccccc1 [[^11C]-N-desmethyl-loperamide]
Kb,brain fold increase, tariquidar vs vehicle (Abcb1a [3]; long anesthesia (160 min)): 4.0 fold
Kp,brain fold increase, tariquidar vs vehicle (Abcb1a [3]; long anesthesia (160 min)): 3.7 fold
Kp,brain,VPM or Kp,brain,dLOP fold increase, tariquidar vs vehicle (Abcb1a [3]; long anesthesia (160 min)): 18.3 fold
Kp,brain for unchanged parent tracer (Kp,brain,VPM or Kp,brain,dLOP) (Abcb1a [3]; long anesthesia (160 min), tariquidar 15 mg/kg): 7.34 ± 0.58
Kp,brain for unchanged parent tracer (Kp,brain,VPM or Kp,brain,dLOP) (Abcb1a [3]; long anesthesia (160 min), vehicle): 0.40 ± 0.16
Kb,brain fold increase, tariquidar vs vehicle (Abcb1a [3]; short anesthesia (5 min)): 7.0 fold
Kp,brain fold increase, tariquidar vs vehicle (Abcb1a [3]; short anesthesia (5 min)): 6.6 fold
Kp,brain,VPM or Kp,brain,dLOP fold increase, tariquidar vs vehicle (Abcb1a [3]; short anesthesia (5 min)): 9.6 fold
Kp,brain for unchanged parent tracer (Kp,brain,VPM or Kp,brain,dLOP) (Abcb1a [3]; short anesthesia (5 min), tariquidar 15 mg/kg): 4.85 ± 0.29 ^b
Kp,brain for unchanged parent tracer (Kp,brain,VPM or Kp,brain,dLOP) (Abcb1a [3]; short anesthesia (5 min), vehicle): 0.51 ± 0.18
Kb,brain fold increase, Abcb1a/1b(−/−) vs wild-type (Abcb1a/1b; awake): 13.8 fold
Kp,brain fold increase, Abcb1a/1b(−/−) vs wild-type (Abcb1a/1b; awake): 13.7 fold
Kp,brain (Abcb1a/1b; awake): 0.20 ± 0.05
Kb,brain fold increase, Abcb1a/1b(−/−) vs wild-type (Abcb1a/1b; isoflurane): 5.7 fold
Kp,brain fold increase, Abcb1a/1b(−/−) vs wild-type (Abcb1a/1b; isoflurane): 6.0 fold
Kp,brain (Abcb1a/1b; isoflurane): 0.20 ± 0.04
percentage of non-protein bound radiotracer (C57BL/6N mouse plasma; with tariquidar (2400 nM)): 12.0 ± 1.0%
percentage of non-protein bound radiotracer (C57BL/6N mouse plasma; without tariquidar): 14.5 ± 1.8%
percentage of unchanged radiotracer in brain [4]: 70 ± 11%
percentage of unchanged radiotracer in plasma [4]: 18 ± 1%
percentage of unchanged radiotracer in plasma ([4]; listed as [^11C]-N-Desmethyl-loperamide): 18 ± 1 ^d %
brain-to-blood concentration ratio (Kb,brain) (Abcb1a [5]; heterozygous Abcb1a/1b(+/−) mice): 1.54 ± 0.19
increase in Kb,brain over vehicle treated wild-type mice (Abcb1a [5]; heterozygous Abcb1a/1b(+/−) mice, not significant): 1.1 fold
brain-to-blood concentration ratio (Kb,brain) (Abcb1a [5]; vehicle treated C57BL/6N wild-type mice, end of PET scan (50–60 min), total radioactivity): 1.42 ± 0.16
brain-to-blood concentration ratio (Kb,brain) (Abcb1a [5]; wild-type mice after 30 mg/kg tariquidar iv 2 h before PET): 2.58 ± 0.44
blood radioactivity concentrations after tariquidar pretreatment compared to vehicle (Abcb1a [6]; C57BL/6N wild-type mice, end of PET scan): increased
increase in Kb,brain over vehicle treated wild-type mice (Abcb1a [6]; homozygous Abcb1a/1b(−/−) mice): 2.8 fold
brain-to-blood concentration ratio (Kb,brain) (Abcb1a [6]; vehicle treated homozygous Abcb1a/1b(−/−) mice): 3.93 ± 0.36
increase in distribution to the human brain following administration of tariquidar (ABCB1 [7]; humans, compared with PET scans without tariquidar ref 18-21): 2 to 5 times
percentage of non-protein bound radiotracer (human plasma [8]): 13.9 ± 0.7%

COc1cc2c(cc1OC)CN(CCc1ccc(NC(=O)c3cc(OC)c(OC)cc3NC(=O)c3cnc4ccccc4c3)cc1)CC2 [tariquidar]
Hill slope, inhibition of [3H]-N-desmethyl-loperamide transport (ABCB1 [1]; ABCB1-transfected cells): 2.1
Hill slope, inhibition of [3H]verapamil transport (ABCB1 [1]; ABCB1-transfected cells): 10.8
Hill slope, inhibition of [3H]-N-desmethyl-loperamide transport (Abcb1a [2]; Abcb1a-transfected cells): 1.3
Hill slope, inhibition of [3H]verapamil transport (Abcb1a [2]; Abcb1a-transfected cells): 2.6
pIC50 (Abcb1a [2]; IC50 of tariquidar for inhibition of [3H]-N-desmethyl-loperamide transport, Abcb1a-transfected LLC cells): 8.22
pIC50 (Abcb1a [2]; IC50 of tariquidar for inhibition of [3H]verapamil transport, Abcb1a-transfected LLC cells): 7.75
pIC50 (Abcb1a [5]): 5.88
Hill slope, Kb,brain of (R)-[11C]verapamil vs tariquidar plasma concentration (Abcb1a [5]; C57BL/6N wild-type mice): 2.98
Hill slope, Kb,brain of [11C]-N-desmethyl-loperamide vs tariquidar plasma concentration (Abcb1a [5]; C57BL/6N wild-type mice): 1.44
pIC50 (Abcb1a [5]; in vivo IC50 of tariquidar (plasma concentration) for increase in Kb,brain of (R)-[11C]verapamil, C57BL/6N wild-type mice, normalized to Abcb1a/1b(−/−) mice): 5.98
pIC50 (Abcb1a [5]; unbound tariquidar in vivo IC50, (R)-[11C]verapamil, mice, in vivo IC50 corrected for plasma protein binding of tariquidar): 8.18
pIC50 (Abcb1a [5]; unbound tariquidar in vivo IC50, [11C]-N-desmethyl-loperamide, mice, in vivo IC50 corrected for plasma protein binding of tariquidar): 8.08
pIC50 (ABCB1 [9]; IC50 of tariquidar for inhibition of [3H]-N-desmethyl-loperamide transport): 8.05
pIC50 (ABCB1 [9]; IC50 of tariquidar for inhibition of [3H]verapamil transport): 7.76
unbound fraction in human plasma (human plasma [10]): 0.0063
pIC50 (ABCB1 [11]): 6.19
pIC50 (ABCB1 [7]; read-out: in vivo IC50 of tariquidar for enhancement of brain distribution of (R)-[11C]verapamil, humans ref 19): 5.65
tariquidar plasma concentration (mean ± SD) [12]: 3.508 ± 0.427 µM
tariquidar plasma concentration (range) [12]: 2802 to 3863 nM
